Data as given in the supplement of paper PMC10307832.

Key:
Test in all cases: relative viability (nuclei count vs DMSO), 5 days (fraction); higher = more cells survive
[1] = compound: CNC(=O)c1ccccc1Sc1ccc2c(/C=C/c3ccccn3)n[nH]c2c1 [Axitinib] + Nc1ncn([C@H]2C[C@H](O)[C@@H](CO)O2)c(=O)n1 [Decitabine] (partner 2 µM)
How it was run: (§1)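 Relative viability was taken as the ratio of nuclei in treated wells to nuclei in vehicle wells. Lung cancer cell lines in 1536-well plates received compounds by pin tool one day after seeding, either one drug alone or a fixed anchor-drug dose plus five library-drug doses (not always all listed) in √10 steps. Nuclei were counted on 4× images after 5 days of treatment, and values are medians of duplicate plates.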

[2] = compound: CNC(=O)c1ccccc1Sc1ccc2c(/C=C/c3ccccn3)n[nH]c2c1 [Axitinib] + O=C(CCCCCCC(=O)Nc1ccccc1)NO [Vorinostat] (partner 1 µM)
How it was run: as §1

[3] = compound: Nc1nc(Nc2ccc3c(c2)CC[C@@H](N2CCCC2)CC3)nn1-c1cc2c(nn1)-c1ccccc1CCC2 [Bemcentinib] + O=C(CCCCCCC(=O)Nc1ccccc1)NO [Vorinostat] (partner 1 µM)
How it was run: as §1

[4] = compound: CNC(=O)c1ccccc1Sc1ccc2c(/C=C/c3ccccn3)n[nH]c2c1 [Axitinib] + C[C@@H](Oc1cc(-c2cnn(C3CCNCC3)c2)cnc1N)c1c(Cl)ccc(F)c1Cl [Crizotinib] (partner 1 µM)
How it was run: as §1

Cell Line | relative viability ([1]; first compound 0.005 µM) | relative viability ([1]; first compound 0.01581 µM) | relative viability ([1]; first compound 0.05 µM) | relative viability ([1]; first compound 0.1581 µM) | relative viability ([1]; first compound 0.5 µM) | relative viability ([2]; first compound 0.005 µM) | relative viability ([2]; first compound 0.01581 µM) | relative viability ([2]; first compound 0.05 µM) | relative viability ([2]; first compound 0.1581 µM) | relative viability ([2]; first compound 0.5 µM) | relative viability ([3]; first compound 0.04 µM) | relative viability ([3]; first compound 0.1265 µM) | relative viability ([3]; first compound 0.4 µM) | relative viability ([3]; first compound 1.265 µM) | relative viability ([3]; first compound 4 µM) | relative viability ([4]; first compound 0.005 µM) | relative viability ([4]; first compound 0.01581 µM) | relative viability ([4]; first compound 0.05 µM) | relative viability ([4]; first compound 0.1581 µM) | relative viability ([4]; first compound 0.5 µM)
NCI-H2342 | 0.717 | 0.68 | 0.769 | 0.658 | 0.794 | 0.98 | 0.784 | 0.666 | 0.665 | 0.72 | 0.833 | 0.807 | 0.746 | 0.678 | 0.808 |  |  |  |  | 
NCI-H460 | 0.585 | 0.464 | 0.528 | 0.535 | 0.585 | 0.758 | 0.772 | 0.734 | 0.732 | 0.914 | 0.696 | 0.981 | 1.21 | 0.838 | 0.73 | 1.05 | 0.876 | 0.915 | 0.816 | 1.13
NCI-H322M | 0.715 | 0.667 | 0.673 | 0.675 | 0.686 | 0.908 | 0.836 | 0.827 | 0.767 | 0.962 | 0.863 | 0.931 | 0.836 | 0.952 | 0.899 | 0.889 | 0.828 | 0.926 | 0.888 | 0.889
HCC-827 | 0.321 | 0.216 | 0.358 | 0.32 | 0.333 | 0.809 | 0.505 | 0.863 | 0.746 | 0.925 | 0.79 | 0.858 | 0.783 | 0.361 | 0.789 | 0.882 | 0.905 | 0.914 | 0.886 | 0.943
